{"source": "patent US20080194482A1", "about": "“Selective Apac2 Receptor Peptide Agonists” (priority 2005, published 2008)", "key": {"human VPAC2 [1]": {"target": "T1, human VPAC2 (Homo sapiens, UniProt P41587)", "T1 construct": "expressed in transfected cells", "T1 sequence (P41587 24-438)": "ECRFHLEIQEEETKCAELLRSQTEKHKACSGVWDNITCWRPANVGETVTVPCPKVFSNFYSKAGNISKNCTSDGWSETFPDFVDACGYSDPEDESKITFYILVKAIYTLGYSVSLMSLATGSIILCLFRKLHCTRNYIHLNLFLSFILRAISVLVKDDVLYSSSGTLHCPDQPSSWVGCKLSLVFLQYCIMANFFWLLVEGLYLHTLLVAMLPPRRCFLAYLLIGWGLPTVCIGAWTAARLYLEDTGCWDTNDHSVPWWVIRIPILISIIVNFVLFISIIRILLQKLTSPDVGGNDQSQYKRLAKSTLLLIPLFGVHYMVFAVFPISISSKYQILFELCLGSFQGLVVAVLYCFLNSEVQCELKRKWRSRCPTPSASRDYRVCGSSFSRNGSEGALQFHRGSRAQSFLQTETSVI", "test": "Filter binding assay, 125I-labeled VIP tracer, VPAC2 membranes", "conditions": "read-out: Human VPAC2 Receptor Binding (IC50; nM)", "procedure": "For this assay, the solutions and equipment include:\nPresoak solution: 0.5% Polyethyleneamine in Aqua dest\nBuffer for flushing filter plates: 25 mM HEPES pH 7.4\nBlocking buffer: 25 mM HEPES pH 7.4; 0.2% protease free BSA\nAssay buffer: 25 mM HEPES pH 7.4; 0.5% protease free BSA\nDilution and assay plate: PS-Microplate, U form\nFiltration Plate: Multiscreen FB Opaque Plate; 1.0 μM Type B Glasfiber filter\nIn order to prepare the filter plates, the presoak solution is aspirated by vacuum filtration. The plates are flushed twice with 200 μL flush buffer. 200 μL blocking buffer is added to the filter plate. The filter plate is then incubated with 200 μL presoak solution for 1 hour at room temperature.\nThe assay plate is filled with 25 μL assay buffer, 25 μL membranes (2.5 μg) suspended in assay buffer, 25 μL compound (agonist) in assay buffer, and 25 μL tracer (about 40000 cpm) in assay buffer. The filled plate is incubated for 1 hour with shaking.\nThe transfer from assay plate to filter plate is conducted. The blocking buffer is aspirated by vacuum filtration and washed two times with flush buffer. 90 μL is transferred from the assay plate to the filter plate. The 90 μL transferred from assay plate is aspirated and washed three times with 200 μL flush buffer. The plastic support is removed. It is dried for 1 hour at 60° C. 30 μL Microscint is added. The count is performed."}, "rat VPAC2 receptor": {"target": "T2, rat VPAC2 receptor (Rattus norvegicus, UniProt P35000)", "T2 construct": "expressed in transfected cells; host or cells: CHO-PO (transient, Lipofectamine)", "T2 sequence (P35000 23-437)": "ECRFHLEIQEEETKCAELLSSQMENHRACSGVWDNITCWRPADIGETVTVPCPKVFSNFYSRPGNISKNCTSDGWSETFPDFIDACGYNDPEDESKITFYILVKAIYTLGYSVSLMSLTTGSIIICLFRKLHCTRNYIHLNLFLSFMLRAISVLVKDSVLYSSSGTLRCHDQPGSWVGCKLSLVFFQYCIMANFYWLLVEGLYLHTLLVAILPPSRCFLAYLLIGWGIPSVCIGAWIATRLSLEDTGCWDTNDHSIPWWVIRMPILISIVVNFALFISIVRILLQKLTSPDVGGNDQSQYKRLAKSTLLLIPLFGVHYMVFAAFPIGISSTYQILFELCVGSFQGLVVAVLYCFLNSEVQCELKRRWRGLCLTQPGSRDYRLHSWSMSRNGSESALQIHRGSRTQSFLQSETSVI", "test": "DiscoveRx cAMP assay, in vitro potency at rat VPAC2 receptor", "assay_type": "cell-based", "conditions": "CHO-PO cells transiently transfected with rat VPAC2; cAMP generation; mean of two independent runs"}, "human VPAC1": {"target": "T3, human VPAC1 (Homo sapiens, UniProt P32241)", "T3 construct": "expressed in transfected cells", "T3 sequence (P32241 31-457)": "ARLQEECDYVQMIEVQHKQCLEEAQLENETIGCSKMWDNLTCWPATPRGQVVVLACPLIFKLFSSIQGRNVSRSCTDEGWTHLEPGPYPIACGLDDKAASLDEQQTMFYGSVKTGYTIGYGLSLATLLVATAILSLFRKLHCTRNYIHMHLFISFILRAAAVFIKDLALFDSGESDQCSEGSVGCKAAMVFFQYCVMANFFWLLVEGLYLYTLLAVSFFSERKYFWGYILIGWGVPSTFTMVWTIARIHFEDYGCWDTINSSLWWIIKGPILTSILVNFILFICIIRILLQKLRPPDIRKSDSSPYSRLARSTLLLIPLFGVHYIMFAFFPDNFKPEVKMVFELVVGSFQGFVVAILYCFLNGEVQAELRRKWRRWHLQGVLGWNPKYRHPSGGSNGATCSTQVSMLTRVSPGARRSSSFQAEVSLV", "test": "Filter binding assay, 125I-labeled VIP tracer, VPAC1 membranes", "conditions": "read-out: Human VPAC1 Receptor Binding (IC50; nM)"}, "human VPAC2 [2]": {"target": "T1, human VPAC2", "test": "Alpha screen cAMP assay, in vitro potency at human VPAC2 receptor", "assay_type": "cell-based", "conditions": "cAMP generation; single result from two analyses in a single run, some values average of more than one experiment", "procedure": "Alpha screen: Cells are washed in the culture flask once with PBS. Then, the cells are rinsed with enzyme free dissociation buffer. The dissociated cells are removed. The cells are then spun down and washed in stimulation buffer. For each data point, 50,000 cells suspended in stimulation buffer are used. To this buffer, Alpha screen acceptor beads are added along with the stimuli. This mixture is incubated for 60 minutes. Lysis buffer and Alpha screen donor beads are added and are incubated for 60 to 120 minutes. The Alpha screen signal (indicative of intracellular cAMP levels) is read in a suitable instrument (e.g. AlphaQuest from Perkin-Elmer). Steps including Alpha screen donor and acceptor beads are performed in reduced light. The EC50 for cAMP generation is calculated from the raw signal or is based on absolute cAMP levels as determined by a standard curve performed on each plate.\nResults for each agonist are, at minimum, from two analyses performed in a single run. For some agonists, the results are the mean of more than one run. The tested peptide concentrations are: 10000, 1000, 100, 10, 3, 1, 0.1, 0.01, 0.003, 0.001, 0.0001 and 0.00001 nM."}, "rat VPAC1 receptor": {"target": "T4, rat VPAC1 receptor (Rattus norvegicus, UniProt P30083)", "T4 construct": "expressed in transfected cells; host or cells: CHO-PO (transient, Lipofectamine)", "T4 sequence (P30083 31-459)": "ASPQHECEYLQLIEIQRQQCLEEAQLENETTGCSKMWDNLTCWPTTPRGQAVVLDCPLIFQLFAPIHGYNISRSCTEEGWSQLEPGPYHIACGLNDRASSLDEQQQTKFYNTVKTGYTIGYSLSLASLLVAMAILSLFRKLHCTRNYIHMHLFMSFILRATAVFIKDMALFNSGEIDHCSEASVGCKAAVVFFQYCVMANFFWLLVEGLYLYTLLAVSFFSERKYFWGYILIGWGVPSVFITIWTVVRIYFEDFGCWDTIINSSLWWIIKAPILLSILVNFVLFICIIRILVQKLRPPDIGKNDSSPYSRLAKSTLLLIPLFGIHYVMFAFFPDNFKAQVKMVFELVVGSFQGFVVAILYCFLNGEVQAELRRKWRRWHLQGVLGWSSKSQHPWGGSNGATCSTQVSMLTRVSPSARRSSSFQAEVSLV", "test": "DiscoveRx cAMP assay, in vitro potency at rat VPAC1 receptor", "assay_type": "cell-based", "conditions": "CHO-PO cells transiently transfected with rat VPAC1; cAMP generation; mean of two independent runs", "description": "DiscoveRx: CHO-PO cells are transiently transfected with rat VPAC1 or VPAC2 receptor DNA using commercially available transfection reagents (Lipofectamine from Invitrogen). The cells are seeded at a density of 10,000/well in a 96-well plate and are allowed to grow for 3 days in […] culture medium. At day 3, the assay is performed.\nOn the day of the experiment, the medium is removed. Also, the cells are washed twice. The cells are incubated in assay buffer plus IBMX for 15 minutes at room temperature. Afterwards, the stimuli are added and are dissolved in assay buffer. The stimuli are present for 30 minutes. Then, the assay buffer is gently removed. The cell lysis reagent of the DiscoveRx cAMP kit is added. Thereafter, the standard protocol for developing the cAMP signal as described by the manufacturer is used (DiscoveRx Inc., USA). EC50 values for cAMP generation are calculated from the raw signal or are based on absolute cAMP levels as determined by a standard curve performed on each plate.\nResults for each agonist are the mean of two independent runs. Rat VPAC1 and VPAC2 results are only generated using the DiscoveRx assay."}, "human PAC1": {"target": "T5, human PAC1 (Homo sapiens, UniProt P41586)", "T5 construct": "expressed in transfected cells", "T5 sequence (P41586 21-468)": "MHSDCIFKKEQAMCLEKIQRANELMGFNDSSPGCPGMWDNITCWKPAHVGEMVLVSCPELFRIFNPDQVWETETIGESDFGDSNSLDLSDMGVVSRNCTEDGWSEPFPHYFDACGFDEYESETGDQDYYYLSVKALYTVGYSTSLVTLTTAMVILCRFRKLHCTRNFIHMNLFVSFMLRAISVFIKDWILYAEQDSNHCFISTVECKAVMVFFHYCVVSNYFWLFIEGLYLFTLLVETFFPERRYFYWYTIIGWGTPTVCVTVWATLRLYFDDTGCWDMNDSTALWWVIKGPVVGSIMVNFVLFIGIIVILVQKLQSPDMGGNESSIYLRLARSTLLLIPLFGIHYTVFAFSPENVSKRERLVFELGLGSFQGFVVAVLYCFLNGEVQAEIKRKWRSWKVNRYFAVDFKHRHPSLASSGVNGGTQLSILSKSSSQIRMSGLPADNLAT", "test": "Filter binding assay, 125I-labeled PACAP-27 tracer, PAC1 membranes", "conditions": "read-out: Human PAC1 Receptor Binding (IC50; nM)"}, "[3]": {"test": "Rat serum stability (activity remaining, CHO-VPAC2 DiscoveRx read-out)", "assay_type": "in vitro ADME", "in_short": "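Peptides preincubated overnight in rat serum at 37 °C without aprotinin versus 4 °C with aprotinin, then tested as 11-point 5× dilutions in duplicate on CHO-VPAC2 cells, 30 min at RT. cAMP measured by DiscoveRx kit against standards; EC50 derived for each aliquot.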"}, "human VPAC2 receptor": {"target": "T6, human VPAC2 receptor (human, UniProt P41587 24-438)", "T6 sequence (looked up)": "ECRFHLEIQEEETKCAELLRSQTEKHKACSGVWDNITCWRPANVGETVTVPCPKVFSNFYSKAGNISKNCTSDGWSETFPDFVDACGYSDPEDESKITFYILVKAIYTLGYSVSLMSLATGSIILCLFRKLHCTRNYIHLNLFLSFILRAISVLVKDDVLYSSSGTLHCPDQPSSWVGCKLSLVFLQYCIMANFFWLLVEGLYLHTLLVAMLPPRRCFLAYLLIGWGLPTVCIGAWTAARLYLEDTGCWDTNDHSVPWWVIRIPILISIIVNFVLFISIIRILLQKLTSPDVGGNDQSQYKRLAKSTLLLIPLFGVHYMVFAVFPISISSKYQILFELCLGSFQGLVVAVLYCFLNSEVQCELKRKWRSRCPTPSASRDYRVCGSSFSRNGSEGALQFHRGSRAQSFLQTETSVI", "test": "cell-based or functional assay"}, "human VPAC1 receptor": {"target": "T7, human VPAC1 receptor (human, UniProt P32241 31-457)", "T7 sequence (looked up)": "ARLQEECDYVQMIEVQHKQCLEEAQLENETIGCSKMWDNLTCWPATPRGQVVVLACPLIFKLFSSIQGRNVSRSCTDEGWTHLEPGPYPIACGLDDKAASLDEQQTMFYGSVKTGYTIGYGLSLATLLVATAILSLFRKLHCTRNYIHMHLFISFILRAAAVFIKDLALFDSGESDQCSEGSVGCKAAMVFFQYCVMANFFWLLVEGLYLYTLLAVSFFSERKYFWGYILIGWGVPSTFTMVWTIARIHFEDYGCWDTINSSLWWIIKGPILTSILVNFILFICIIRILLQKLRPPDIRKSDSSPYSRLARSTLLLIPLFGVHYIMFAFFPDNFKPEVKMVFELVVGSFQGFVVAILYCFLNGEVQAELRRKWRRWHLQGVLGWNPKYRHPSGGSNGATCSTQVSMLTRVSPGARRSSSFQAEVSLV", "test": "cell-based or functional assay"}}, "note": "Square brackets hold non-standard residues; d marks the D form. Peptide text beside a SMILES is read from it. * marks the point of attachment. Orn = NCCC[C@H](N)C(=O)O; Hexanoyl = CCCCCC(=O)*; Aib = CC(C)(N)C(=O)O", "data": [{"molecule": "CCCCCC(=O)N[C@@H](Cc1c[nH]cn1)C(=O)N[C@@H](CO)C(=O)N[C@@H](CC(=O)O)C(=O)N[C@@H](C)C(=O)N[C@H](C(=O)N[C@@H](Cc1ccccc1)C(=O)N[C@H](C(=O)N[C@@H](CC(=O)O)C(=O)N[C@@H](CC(N)=O)C(=O)N[C@@H](Cc1ccc(O)cc1)C(=O)N[C@H](C(=O)N[C@@H](CCCN)C(=O)N[C@@H](CC(C)C)C(=O)N[C@@H](CCCNC(=N)N)C(=O)NC(C)(C)C(=O)N[C@@H](CCC(N)=O)C(=O)N[C@H](C(=O)N[C@@H](C)C(=O)N[C@@H](C)C(=O)NC(C)(C)C(=O)N[C@@H](CCCCN)C(=O)N[C@@H](Cc1ccc(O)cc1)C(=O)N[C@@H](CC(C)C)C(=O)N[C@@H](CCC(N)=O)C(=O)N[C@@H](CS)C(=O)N[C@H](C(=O)N[C@@H](CCCN)C(=O)N[C@@H](CC(N)=O)C(=O)N[C@@H](CCCN)C(=O)NCC(=O)NCC(=O)N1CCC[C@H]1C(=O)N[C@@H](CO)C(=O)N[C@@H](CO)C(=O)NCC(=O)N[C@@H](C)C(=O)N1CCC[C@H]1C(=O)N1CCC[C@H]1C(=O)N1CCC[C@H]1C(=O)N[C@@H](CO)C(=O)O)[C@@H](C)CC)C(C)C)[C@@H](C)O)[C@@H](C)O)C(C)C", "note": "[Agonist P372] (Hexanoyl-HSDAVFTDNYT[Orn]LR[Aib]QVAA[Aib]KYLQCI[Orn]N[Orn]GGPSSGAPPPS-OH; C-terminus assumed)", "values": [{"measurement": "IC50", "setting": "human VPAC2 [1]", "result": 4.82, "unit": "nM"}, {"measurement": "EC50", "setting": "rat VPAC2 receptor", "result": 0.18, "unit": "nM"}, {"measurement": "IC50", "setting": "human VPAC1", "result": "> 3000", "unit": "nM"}, {"measurement": "EC50", "setting": "human VPAC2 [2]", "result": 0.65, "unit": "nM"}, {"measurement": "EC50", "setting": "rat VPAC1 receptor", "result": 1.67, "unit": "nM"}, {"measurement": "IC50", "setting": "human PAC1", "result": "> 25000", "unit": "nM"}, {"measurement": "Rat Serum Stability (estimated purity in % after overnight incub.)", "setting": "[3]", "result": 13.93, "unit": "%"}]}, {"molecule": "HSDAVFTDNYTRLRKQVAAKKYLQSIKNKRQGGPSSGAPPPS", "note": "[VPAC2 receptor peptide agonist P29]", "values": [{"measurement": "Human VPAC2 Receptor: DiscoveRx (EC50; nM), cAMP generation", "setting": "human VPAC2 receptor", "result": 3.02, "unit": "nM"}, {"measurement": "Human VPAC1 Receptor: DiscoveRx (EC50; nM), cAMP generation", "setting": "human VPAC1 receptor", "result": 18.3, "unit": "nM"}]}]}
